Active and inactive are the calls of the source. The calls are words filed in the database; no cut-off is given here.
What was measured:
Type in all cases: functional, cell-based
[1] = Antiproliferative activity against human NAMALWA cells assessed as inhibition of cell proliferation incubated for 72 hrs by conventional ATP quantification method; settings: NAMALVA
[2] = Antiproliferative activity against human WM266.4 cells assessed as inhibition of cell proliferation incubated for 72 hrs by conventional ATP quantification method; settings: WM 266-4, 72 h
A-375 = assay: Antiproliferative activity against human A375 cells assessed as inhibition of cell proliferation incubated for 72 hrs by conventional ATP quantification method; settings: A-375, 72 h
A549 = assay: Antiproliferative activity against human A549 cells assessed as inhibition of cell proliferation incubated for 72 hrs by conventional ATP quantification method; settings: A549, 72 h
HCT-116 = assay: Antiproliferative activity against human HCT116 cells assessed as inhibition of cell proliferation incubated for 72 hrs by conventional ATP quantification method; settings: HCT-116, 72 h
PANC-1 = assay: Induction of ROS generation in human PANC1 cells incubated for 1 hr by DCFH-DA dye based assay

Compound | IC50 [1] [µM] | IC50 [2] [µM] | IC50 (A-375) [µM] | IC50 (A549) [µM] | IC50 (HCT-116) [µM] | Activity (PANC-1)
C=C(C(=O)O)C1OC(=O)[C@H]2[C@H]1[C@@H](C(C)C)CC[C@@]2(O)CI (stereo partly specified) | > 10 | > 10 | > 10 | > 10 | > 10 | 
CC(C)[C@H]1CC[C@@](O)(CCl)[C@H]2C(=O)OCC(C(=O)O)=C[C@H]12 [HEPTELIDIC ACID CHLOROHYDRIN] | 0.32 | 0.55 | 1.31 | 0.55 | 0.22 | 
CNC(=O)C1=C[C@@H]2[C@@H](C(C)C)CC[C@@]3(CO3)[C@H]2C(=O)OC1 | 1.28 | 5.9 | 4.15 | 5.54 | 7.1 | 
COC(=O)C1=C[C@@H]2[C@@H](C(C)C)CC[C@@]3(CO3)[C@H]2C(=O)OC1 | 1.74 | 4.1 | 4.09 | 0.45 | 2.19 | 
CC(C)[C@H]1CC[C@@](O)(CI)[C@H]2C(=O)OCC(C(=O)O)=C[C@H]12 | 3.26 | 10.1 | > 10 | 5.43 | 2.14 | 
BLEOMYCIN |  |  |  |  |  | Active

From ChEMBL document CHEMBL3585330, “Anticancer activity of koningic acid and semisynthetic derivatives” (Bioorg Med Chem, 2015)
